For five cell lines, relative viability results are on record in the supplement of paper PMC10307832.

Assay in all cases: relative viability (nuclei count vs DMSO), 5 days (fraction); higher = more cells survive
Compound in experiment [1]: CC1=C(C(=NN1)C)CC2=C(C3=C(S2)N(C(=O)N(C3=O)C)CC(C)C)C(=O)N4C[C@@H](CO4)O + CS(=O)(=O)CCNCc1ccc(-c2ccc3ncnc(Nc4ccc(OCc5cccc(F)c5)c(Cl)c4)c3c2)o1 [Lapatinib] (partner 2 µM)
Put shortly: (§1)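 Cells from lung cancer lines were seeded into 1536-well plates and, one day later, dosed by pin tool. Treatments were either a single drug or a fixed dose of an anchor drug with five library-drug doses (not always all listed) in √10 steps. After 5 days, nuclei were stained in a one-step fixation (final 0.05% Triton X-100, 1% formaldehyde, 1 ug/ml Hoechst) and counted on 4× images, and relative viability is the treated-to-vehicle nuclei ratio, as the median of duplicate plates.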

Compound in experiment [2]: CC1=C(C(=NN1)C)CC2=C(C3=C(S2)N(C(=O)N(C3=O)C)CC(C)C)C(=O)N4C[C@@H](CO4)O + Cc1nc(Nc2ncc(C(=O)Nc3c(C)cccc3Cl)s2)cc(N2CCN(CCO)CC2)n1 [Dasatinib] (partner 0.075 µM)
Put shortly: as §1

Compound in the experiment “IDH-C35 + Crizotinib”: Cc1ccccc1C(C(=O)NC1CCCCC1)N(C(=O)Cn1ccnc1C)c1cccc(F)c1 [IDH-C35] + C[C@@H](Oc1cc(-c2cnn(C3CCNCC3)c2)cnc1N)c1c(Cl)ccc(F)c1Cl [Crizotinib] (partner 1 µM)
Summed up: as §1

Compound in the experiment “IDH-C35 + Olaparib”: Cc1ccccc1C(C(=O)NC1CCCCC1)N(C(=O)Cn1ccnc1C)c1cccc(F)c1 [IDH-C35] + O=C(c1cc(Cc2n[nH]c(=O)c3ccccc23)ccc1F)N1CCN(C(=O)C2CC2)CC1 [Olaparib] (partner 8 µM)
Put shortly: as §1

For the cell line NCI-H2347, the relative viability in experiment [1] (first compound 0.0025 µM) was 0.993; in experiment [1] (first compound 0.007906 µM), 0.956; in experiment [1] (first compound 0.025 µM), 0.86; in experiment [1] (first compound 0.07906 µM) it was 0.964; in experiment [1] (first compound 0.25 µM), 1.09; in experiment [2] (first compound 0.0025 µM), 0.394. Also, the relative viability in experiment [2] (first compound 0.007906 µM) was found to be 0.323; in experiment [2] (first compound 0.025 µM), 0.299; in experiment [2] (first compound 0.07906 µM) it was 0.234; in experiment [2] (first compound 0.25 µM), 0.257; with IDH-C35 + Crizotinib (first compound 0.08 µM), 0.71; with IDH-C35 + Crizotinib (first compound 0.253 µM), 0.695. Moreover, the relative viability in the experiment with IDH-C35 + Crizotinib (first compound 0.8 µM) came out at 0.713; with IDH-C35 + Crizotinib (first compound 2.53 µM) it was 0.762; with IDH-C35 + Crizotinib (first compound 8 µM), 0.619; with IDH-C35 + Olaparib (first compound 0.08 µM) it was 0.577; with IDH-C35 + Olaparib (first compound 0.253 µM), 0.628; in the experiment with IDH-C35 + Olaparib (first compound 0.8 µM) it was 0.609. The relative viability in the experiment with IDH-C35 + Olaparib (first compound 2.53 µM) is 0.522; in the experiment with IDH-C35 + Olaparib (first compound 8 µM), 0.554.
Take NCI-H2405: the relative viability came out at 1.26 in experiment [1] (first compound 0.0025 µM); 1.1 in experiment [1] (first compound 0.007906 µM); 1.18 in experiment [1] (first compound 0.07906 µM); 1.12 in experiment [1] (first compound 0.25 µM); 0.216 in experiment [2] (first compound 0.0025 µM); 0.223 in experiment [2] (first compound 0.007906 µM). For the same cell line, the relative viability in experiment [2] (first compound 0.07906 µM) stood at 0.238; in experiment [2] (first compound 0.25 µM), 0.224; with IDH-C35 + Crizotinib (first compound 0.08 µM), 0.837; with IDH-C35 + Crizotinib (first compound 0.253 µM), 0.841; in the experiment with IDH-C35 + Crizotinib (first compound 0.8 µM), 0.852; in the experiment with IDH-C35 + Crizotinib (first compound 2.53 µM), 0.829. Also, the relative viability with IDH-C35 + Crizotinib (first compound 8 µM) worked out at 0.797; with IDH-C35 + Olaparib (first compound 0.08 µM) it was 0.85; with IDH-C35 + Olaparib (first compound 0.253 µM) it was 0.858; with IDH-C35 + Olaparib (first compound 0.8 µM), 0.825; in the experiment with IDH-C35 + Olaparib (first compound 2.53 µM), 0.98; with IDH-C35 + Olaparib (first compound 8 µM) it was 0.884.
On to NCI-H3122, for which the relative viability in experiment [1] (first compound 0.0025 µM) was 1.06; in experiment [1] (first compound 0.007906 µM), 1.03; in experiment [1] (first compound 0.025 µM), 1.01; in experiment [1] (first compound 0.07906 µM) it was 0.993; in experiment [1] (first compound 0.25 µM) it was 1.02; in experiment [2] (first compound 0.0025 µM), 0.988. The relative viability in experiment [2] (first compound 0.007906 µM) is 1.03; in experiment [2] (first compound 0.025 µM), 0.663; in experiment [2] (first compound 0.07906 µM), 0.775; in experiment [2] (first compound 0.25 µM), 0.889; in the experiment with IDH-C35 + Crizotinib (first compound 0.08 µM) it was 0.292; in the experiment with IDH-C35 + Crizotinib (first compound 0.253 µM) it was 0.299. Besides, the relative viability with IDH-C35 + Crizotinib (first compound 0.8 µM) is 0.295; in the experiment with IDH-C35 + Crizotinib (first compound 2.53 µM) it was 0.252; with IDH-C35 + Crizotinib (first compound 8 µM), 0.27; with IDH-C35 + Olaparib (first compound 0.08 µM), 0.583; with IDH-C35 + Olaparib (first compound 0.253 µM) it was 0.537; with IDH-C35 + Olaparib (first compound 0.8 µM), 0.587. Also, the relative viability amounted to 0.623 in the experiment with IDH-C35 + Olaparib (first compound 2.53 µM) and 0.665 with IDH-C35 + Olaparib (first compound 8 µM).
In the case of PC-3 [JPC-3], the relative viability in experiment [1] (first compound 0.0025 µM) was found to be 0.475; in experiment [1] (first compound 0.007906 µM), 0.411; in experiment [1] (first compound 0.025 µM), 0.501; in experiment [1] (first compound 0.07906 µM), 0.522; in experiment [1] (first compound 0.25 µM), 0.427; in experiment [2] (first compound 0.0025 µM), 1.06. In addition, the relative viability in experiment [2] (first compound 0.007906 µM) came to 0.939; in experiment [2] (first compound 0.025 µM), 0.94; in experiment [2] (first compound 0.07906 µM) it was 0.908; in experiment [2] (first compound 0.25 µM), 0.975; with IDH-C35 + Crizotinib (first compound 0.08 µM), 1.01; with IDH-C35 + Crizotinib (first compound 0.253 µM) it was 0.919. Besides, the relative viability amounted to 0.929 with IDH-C35 + Crizotinib (first compound 0.8 µM); 1.03 in the experiment with IDH-C35 + Crizotinib (first compound 2.53 µM); 0.965 in the experiment with IDH-C35 + Crizotinib (first compound 8 µM); 1.15 with IDH-C35 + Olaparib (first compound 0.08 µM); 1.11 in the experiment with IDH-C35 + Olaparib (first compound 0.253 µM); 1.2 in the experiment with IDH-C35 + Olaparib (first compound 0.8 µM). Further, the relative viability was determined as 1.07 with IDH-C35 + Olaparib (first compound 2.53 µM) and 1.06 in the experiment with IDH-C35 + Olaparib (first compound 8 µM).
With PC-14, the relative viability in experiment [1] (first compound 0.0025 µM) was found to be 0.373; in experiment [1] (first compound 0.007906 µM), 0.413; in experiment [1] (first compound 0.025 µM) it was 0.32; in experiment [1] (first compound 0.07906 µM), 0.32; in experiment [1] (first compound 0.25 µM), 0.359; in experiment [2] (first compound 0.0025 µM), 0.281. For the same cell line, the relative viability worked out at 0.261 in experiment [2] (first compound 0.007906 µM); 0.254 in experiment [2] (first compound 0.025 µM); 0.278 in experiment [2] (first compound 0.07906 µM); 0.269 in experiment [2] (first compound 0.25 µM); 0.886 in the experiment with IDH-C35 + Crizotinib (first compound 0.08 µM); 0.845 in the experiment with IDH-C35 + Crizotinib (first compound 0.253 µM). Further, the relative viability with IDH-C35 + Crizotinib (first compound 0.8 µM) turned out to be 0.837; in the experiment with IDH-C35 + Crizotinib (first compound 2.53 µM), 0.88; with IDH-C35 + Crizotinib (first compound 8 µM), 0.835; with IDH-C35 + Olaparib (first compound 0.08 µM), 0.251; with IDH-C35 + Olaparib (first compound 0.253 µM), 0.271; in the experiment with IDH-C35 + Olaparib (first compound 0.8 µM), 0.222. Also, the relative viability was found to be 0.292 with IDH-C35 + Olaparib (first compound 2.53 µM) and 0.237 with IDH-C35 + Olaparib (first compound 8 µM).
